One assay deals with T1, β3AR (Rattus norvegicus, UniProt P26255).
T1 construct: host or cells: rat, in vivo (bladder)
The settings on record: rats, intravenous administration, cited from earlier work.

Assay [1] concerns the target T2, human β3 adrenergic receptor (Homo sapiens, UniProt P13945).
T2 construct: expressed in transfected cells; host or cells: Chinese hamster ovary (CHO) cells, stably transfected
In words: Functional assay: cAMP production (LANCE TR-FRET) in CHO cells stably transfected with cloned β3 adrenergic receptor. It counts as cell-based. The essentials:
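Agonist-stimulated cAMP in CHO cells stably expressing human β3 receptor, 6,000 cells per well in HBSS/HEPES/0.1% BSA with 0.6 mM IBMX, 30 min at room temperature. LANCE TR-FRET readout converted to cAMP via standard curve; maximal stimulation defined with isoproterenol.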

Setting [2] is: Table 11, read-out: Human β3 Functional.
Setting [3] is: human β3 functional activity, shown as ranges, Table 13, read-out: Human β3 Functional.
The mark [4] stands for this setting: given as a range, cAMP, CHO cells, read-out: human β3 functional activity.

We go through 10 compounds from patent US8399480B2, “Hydroxymethyl pyrrolidines as beta 3 adrenergic receptor agonists” (Merck Sharp & Dohme Corp., priority 2008, dated 2013).

Like-named read-outs stand apart in the source and are kept apart here.

T2 sequence (P13945 whole entry): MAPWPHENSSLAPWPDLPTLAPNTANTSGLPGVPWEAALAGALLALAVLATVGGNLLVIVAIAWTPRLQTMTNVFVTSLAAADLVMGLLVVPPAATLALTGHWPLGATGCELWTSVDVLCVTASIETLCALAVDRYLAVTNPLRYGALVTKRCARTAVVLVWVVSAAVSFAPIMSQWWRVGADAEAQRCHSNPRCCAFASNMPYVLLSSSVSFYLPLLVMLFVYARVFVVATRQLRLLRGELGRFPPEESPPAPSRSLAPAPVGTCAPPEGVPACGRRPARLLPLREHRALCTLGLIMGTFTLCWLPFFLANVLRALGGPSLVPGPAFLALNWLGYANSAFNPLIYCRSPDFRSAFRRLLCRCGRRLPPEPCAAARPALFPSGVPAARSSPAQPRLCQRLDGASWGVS
T1 sequence (P26255 whole entry): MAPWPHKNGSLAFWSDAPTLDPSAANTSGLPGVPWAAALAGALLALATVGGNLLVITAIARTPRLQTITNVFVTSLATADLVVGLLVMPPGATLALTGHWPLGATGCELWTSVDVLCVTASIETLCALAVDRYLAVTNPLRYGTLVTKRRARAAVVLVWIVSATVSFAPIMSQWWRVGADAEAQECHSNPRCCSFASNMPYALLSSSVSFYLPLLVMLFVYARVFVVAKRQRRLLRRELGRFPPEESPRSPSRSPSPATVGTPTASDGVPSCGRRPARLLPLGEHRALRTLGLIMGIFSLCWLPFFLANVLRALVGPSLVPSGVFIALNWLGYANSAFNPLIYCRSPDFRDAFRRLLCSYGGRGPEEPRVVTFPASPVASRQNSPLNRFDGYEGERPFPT

As to `C[C@H](Cc1ccc2c(c1)OC(C(=O)[O-])(C(=O)[O-])O2)NC[C@H](O)c1cccc(Cl)c1.[Na+].[Na+]` [CL316243], the bladder capacity entry on β3AR (cystometric studies, prolonged micturition interval without increasing residual urine volume) is listed as “increases bladder capacity”. Besides, the bladder pressure entry on β3AR is recorded as “reduces bladder pressure”.
As to `O=C(Nc1ccc(C[C@@H]2CC[C@H]([C@H](O)c3ccc(F)cc3)N2)cc1)[C@@H]1CCc2scnc21` [Example 284], the EC50 in assay [1] (setting [2]) was under 1 nM.
Same read-out and setting: to `O=C(Cn1ncccc1=O)Nc1ccc(C[C@@H]2CC[C@H]([C@H](O)c3ccc(F)cc3)N2)cc1` [Example 287] belongs 1 to 10 nM.
In the case of `O=C(Nc1ccc(C[C@@H]2CC[C@H]([C@H](O)c3ccc(F)c(F)c3)N2)cc1)[C@@H]1CCc2scnc21` [Example 290], the EC50 in assay [1] (Table 12, read-out: Human β3 Functional) was under 1 nM.
As for `O=C(Nc1ccc(C[C@@H]2CC[C@H]([C@H](O)c3cccc(Cl)c3)N2)cc1)[C@H]1CCc2scnc21` [Example 296], the EC50 in assay [1] (setting [3]) lay in the range of 11 to 100 nM.
Still for that read-out and setting: for `O=C(Nc1ccc(C[C@@H]2CC[C@H]([C@H](O)c3cccc(Cl)c3)N2)cc1)[C@@H]1CCc2scnc21` [Example 297] the value was under 1 nM.
Still for that read-out and setting: to `Nc1nc(CC(=O)Nc2ccc(C[C@@H]3CC[C@H]([C@H](O)c4cccc(Cl)c4)N3)cc2)cs1` [Example 304] belongs 1 to 10 nM; to `O=C(Cn1ncccc1=O)Nc1ccc(C[C@@H]2CC[C@H]([C@H](O)c3cccc(Cl)c3)N2)cc1` [Example 305], 11 to 100 nM.
With `Nc1nc(CC(=O)Nc2ccc(C[C@@H]3CC[C@H]([C@H](O)c4ccccc4)N3)cc2Br)cs1` [Example 312, 2-(2-Amino-1,3-thiazol-4-yl)-N-[2-bromo-4-({(2S,5R)-5-[(R)-hydroxy(phenyl)methyl]pyrrolidin-2-yl}methyl)phenyl]acetamide], the EC50 in assay [1] (setting [4]) was in the range of 11 to 100 nM.
Same read-out and setting: for `Nc1nc(CC(=O)Nc2ccc(C[C@H]3CC[C@H]([C@H](O)c4ccccc4)N3)cc2Br)cs1` [Example 313, 2-(2-Amino-1,3-thiazol-4-yl)-N-[2-bromo-4-({(2R,5R)-5-[(R)-hydroxy(phenyl)methyl]pyrrolidin-2-yl}methyl)phenyl]acetamide] the value was 101 to 1000 nM.
